According to US8981106B2, “Pyrimidinecarboxamides as CXCR2 modulators” (Syntrix Biosystems, Inc., priority 2009, dated 2015):
Entries after “also recorded” stand apart in the source; their conditions may differ. Like-named read-outs stand apart in the source and are kept apart here.

Key:
neutrophil influx [1] = test: Murine air pouch model of neutrophil chemotaxis (p.o.); type: in vivo, male CD-1 mice; conditions: for total neutrophil counts in the blood: high doses, compared to control animals; for neutrophil influx / neutrophil influx at high oral dose: p.o.
Procedure: Compounds 1 (SX-517) and 2 (SX-576) were also assayed in an in vivo air-pouch model of inflammation. SX-517 and SX-576 were able to attenuate neutrophil influx in the air-pouch model by about 50% at an oral dose of 0.2 and 0.05 mg/kg, respectively. […] More specifically, the procedure was performed by forming an air pouch on the backs of male CD-1 mice via the subcutaneous injection of air (2 mL). The next day, an additional subcutaneous injection of air (1.5 mL) was performed to reinflate the air pouch. The mice were given either vehicle control (Labrasol®) or test compound solubilized in Labrasol® via oral gavage. After 3 hours, either sterile phosphate buffered saline (PBS, 1 ml) or 2% carrageenan in sterile PBS (1 mL) was injected into the air pouch. After 4 hours, the mice were sedated with ketamine, and sacrificed by cervical dislocation. The exudate in the air pouch was collected by syringe, with an additional 2 mL wash with sterile PBS. The neutrophils were stained with trypan blue and counted on a hemocytometer under 20× magnification.

CXCR2 [2] = biological target: T1, CXCR2 (Homo sapiens (Human), UniProt P25025); test: Agonist activity: intracellular calcium release in human neutrophils in the absence of GROα; type: cell-based; conditions: relative to the response to 25 nM GROα
Procedure: In Tables 1-5, the IC50 or EC50 values were determined using the following assay. This assay measures intracellular calcium release via fluorescence as an indication of CXCR2 receptor activation by the physiologic agonist GROα. The assay is a Ca^2+ mobilization assay that measures changes in intracellular Ca^2+ with a FlexStation II scanning fluorometer using a FLIPR-3 Calcium Assay Kit (Molecular Devices, Sunnyvale, Calif.). The procedure is as follows:
9. The maximum change in fluorescence, expressed in arbitrary units over baseline (Max-Min) was used to determine the GROα response. […] Therapeutic Activity
The maximum change in fluorescence, expressed in arbitrary units over baseline (Max-Min), was used to determine the GROα response.
Intracellular calcium release is a hallmark of CXCR2 activation by endogenous agonists, such as GROα and IL-8.
Target sequence in this assay (P25025 whole entry): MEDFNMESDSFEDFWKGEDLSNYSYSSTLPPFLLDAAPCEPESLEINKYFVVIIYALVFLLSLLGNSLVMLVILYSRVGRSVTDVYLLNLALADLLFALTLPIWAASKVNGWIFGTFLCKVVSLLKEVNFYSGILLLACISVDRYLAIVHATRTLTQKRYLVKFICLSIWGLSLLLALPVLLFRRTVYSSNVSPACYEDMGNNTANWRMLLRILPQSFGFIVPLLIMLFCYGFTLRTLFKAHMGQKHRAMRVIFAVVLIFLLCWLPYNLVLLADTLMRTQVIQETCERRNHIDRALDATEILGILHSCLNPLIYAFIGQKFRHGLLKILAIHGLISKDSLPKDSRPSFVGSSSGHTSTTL

[3] = Crossover pharmacokinetic experiment in Beagle dogs; type: in vivo
Procedure: In this study, male Beagle dogs (n=5) were dosed intravenously on study day 1 with SX-576 in dimethylformamide/PEG400/saline (40:40:20) at a dose level of 5 mg/kg and a dose volume of 0.5 mL/kg. Blood samples were taken predose, and at time points 30, 60, 90, 120, 180, 360, 540 and 720 minutes. The blood was collected in tubes containing K2EDTA as an anticoagulant, and the tubes were centrifuged and the plasma fractions collected and frozen. After a one-week washout period, the same Beagle dogs were dosed orally with SX-576 in lipid based excipient Gelucire® 44/14 (Gattefosse) at a dose level of 5 mg/kg. Blood samples were then taken and plasma fractions collected as previously described. Prior to analysis, the plasma samples were thawed and diluted 1:3 into acetonitrile containing 1 μM of compound 153 as an internal standard. The resulting samples were centrifuged and the supernatant analyzed by LC-MS monitoring in multiple reaction monitoring mode. The samples were run concomitantly with a calibration curve of SX-576 in the same internal standard solution.
The lipid based excipient Gelucire® 44/14 is a self-emulsifying drug delivery system (SEDDS) that is able to solubilize both SX-517 and SX-576 into aqueous solutions via micellular formation. […] Therefore, lipid-based emulsifiers are important excipients for the oral delivery of SX-576.

CXCR2 [4] = biological target: T1, CXCR2; test: 125I-IL-8 radioligand binding inhibition; conditions: concentrations up to 10 μM
Description: In vitro experiments, in addition to those measuring calcium release from human PMNs, provided evidence that the mechanism of action of Compounds 1 and 2 are most consistent with an allosteric (non-competitive) mode of action.
Target sequence in this assay (P25025 whole entry): as above

CXCR2 [5] = biological target: T1, CXCR2; test: Inhibition of GROα-mediated intracellular calcium release in human neutrophils (FLIPR-3 Ca2+ mobilization); type: cell-based
Target sequence in this assay (P25025 whole entry): as above

Aqueous solubility = type: physicochemical
CXCR2 [6] = biological target: T1, CXCR2; test: β-arrestin recruitment, β-galactosidase fragment complementation (DiscoveRx)
Target sequence in this assay (P25025 whole entry, species assumed): as the sequence (P25025 whole entry) above

pulmonary inflammation = test: Ozone rat model of pulmonary inflammation; type: in vivo, Sprague-Dawley rats; conditions: 1 mg/kg i.v., 1 ppm ozone, BALF at 24 hours
Procedure: Activity in this model of pulmonary inflammation would provide direct relevance towards the treatment of a number of pulmonary inflammatory diseases, including chronic obstructive pulmonary disease (COPD) and bronchopulmonary dysplasia (BPD). In this experiment, Sprague-Dawley rats (n=4 per cohort) were dosed intravenously at t=0 with either vehicle (negative and positive groups, dimethylformamide/PEG400/saline, 40:40:20) or SX-576 (1 mg/kg). The rats were then placed in air (negative group) or 1 ppm ozone (positive and SX-576 groups) for 4 hours. The rats were dosed again at t=5 and 9 hours. The rats were then sacrificed at t=24 hours, and the bronchoalveolar lavage fluid (BALF) was collected. The cells were spun down, stained with Wright-Giemsa and counted. In the negative groups, no neutrophils were observed when stained. As a measure of lung leakage/damage, protein levels were quantified in BALF by Bradford protein assay analysis.

neutrophil influx [7] = test: Murine air pouch model of neutrophil chemotaxis (i.v.); type: in vivo, male CD-1 mice; conditions: i.v., 0.02, 0.05, 0.2 and 1.0 mg/kg
Procedure: The procedure was performed by forming an air pouch on the backs of male CD-1 mice via the subcutaneous injection of air (2 mL). The next day, an additional subcutaneous injection of air (1.5 mL) was performed to reinflate the air pouch. The mice were given either vehicle control (dimethylformamide/PEG400/saline) or test compound solubilized in vehicle via tail vein injection. After 30 minutes, either sterile phosphate buffered saline (PBS, 1 ml) or 2% carrageenan in sterile PBS (1 mL) was injected into the air pouch. After 4 hours, the mice were sedated with ketamine, and sacrificed by cervical dislocation. The exudate in the air pouch was collected by syringe, with an additional 2 mL wash with sterile PBS. The neutrophils were stained with trypan blue and counted on a hemocytometer under 20× magnification.

CXCR2 [8] = biological target: T1, CXCR2; test: Wash-resistant inhibition of GROα-mediated calcium response after inhibitor washout; type: cell-based; conditions: 0.4, 2, 10 μM, 30 min incubation, washed, up to 6 h after washout
Target sequence in this assay (P25025 whole entry): as above
Procedure: The cells were washed and resuspended in RPMI/2% serum (serum was obtained from the same donor as the neutrophils). The concentration of the neutrophil suspension was 10^7 cells/mL. […] The neutrophils were washed and resuspended in RPMI/2% serum and maintained at room temperature. At 30 minutes before each time point, a 56.25 μL aliquot of the neutrophils were removed and loaded for 30 minutes at room temperature in the dark with FLIPR-3 reagent (262.5 μL per tube).

**Q.** With `O=C(Nc1ccc(F)cc1)c1ccc(SCc2ccccc2B(O)O)nc1` [Compound 1, 6-(2-borono-2-yl-benzylsulfanyl)-N-(4-fluoro-phenyl)-nicotinamide] as the molecule, how does the “total neutrophil counts in the blood” value (neutrophil influx [1]) read?
**A.** not significantly changed

**Q.** And the “attenuation of neutrophil influx” value (neutrophil influx [1]; oral dose 0.2 mg/kg)?
**A.** about 50%

**Q.** What about the neutrophil influx (neutrophil influx [1]; 0.005 and 0.2 (mg/kg)) of the same molecule?
**A.** decrease of neutrophil influx

**Q.** What about the “neutrophil influx at high oral dose” value (neutrophil influx [1]; doses in excess of 10 mg/kg) of the same molecule?
**A.** increase in neutrophil influx

**Q.** And the “Magnitude of Agonist Response (% of GROα only Control)” value (CXCR2 [2])?
**A.** did not show agonist activity

**Q.** And the “plasma level when dosed without excipient” value [3]?
**A.** undetected in plasma

**Q.** What about the “displacement of radiolabeled IL-8 binding to CXCR2 receptors” value (CXCR2 [4]) of the same molecule?
**A.** unable to significantly displace

**Q.** And the IC50 (CXCR2 [5]; human neutrophils, 25 nM GROα, read-out: IC50)?
**A.** 38 ± 3 nM

**Q.** And the IC50 (CXCR2 [5]; in vitro, stated in the binding example, read-out: IC50 in vitro)?
**A.** ~60 nM

**Q.** What about the aqueous solubility (Aqueous solubility) of the same molecule?
**A.** poor aqueous solubility

**Q.** What about the “activity on β-arrestin complexation with CXCR2 in the absence of IL8” value (CXCR2 [6]) of the same molecule?
**A.** inverse agonists

**Q.** What about the “inhibition of β-arrestin recruitment following CXCR2 activation with IL8” value (CXCR2 [6]) of the same molecule?
**A.** inhibited arrestin recruitment

**Q.** Which “total neutrophil counts in the blood” value (neutrophil influx [1]) does the source give for `O=C(Nc1ccc(F)cc1)c1ccc(SCc2cc(OC(F)(F)F)ccc2B(O)O)nc1` [Compound 2, 6-(2-boronic acid-5-trifluoromethoxy-benzylsulfanyl)-N-(4-fluoro-phenyl)-nicotinamide] here?
**A.** not significantly changed

**Q.** And the “attenuation of neutrophil influx” value (neutrophil influx [1]; oral dose 0.05 mg/kg)?
**A.** about 50%

**Q.** And the neutrophil influx (neutrophil influx [1]; 0.05 mg/kg)?
**A.** decrease of neutrophil influx

**Q.** And the “neutrophil influx at high oral dose” value (neutrophil influx [1]; doses in excess of 1 mg/kg)?
**A.** increase in neutrophil influx

**Q.** What about the “influx of macrophages into the lungs” value (pulmonary inflammation) of the same molecule?
**A.** significantly decreased

**Q.** And the “influx of neutrophils into the lungs” value (pulmonary inflammation)?
**A.** significantly decreased

**Q.** What about the “ozone-induced lung damage (protein levels in the BALF)” value (pulmonary inflammation) of the same molecule?
**A.** protected against ozone-induced lung damage

**Q.** And the “Magnitude of Agonist Response (% of GROα only Control)” value (CXCR2 [2])?
**A.** 100%

**Q.** What about the “bioavailability following oral administration” value ([3]; 5 mg/kg oral in Gelucire 44/14) of the same molecule?
**A.** improved the bioavailability

**Q.** What about the “plasma level when dosed without excipient” value [3] of the same molecule?
**A.** undetected in plasma

**Q.** What about the aqueous solubility (Aqueous solubility) of the same molecule?
**A.** poor aqueous solubility

**Q.** And the “activity on β-arrestin complexation with CXCR2 in the absence of IL8” value (CXCR2 [6])?
**A.** inverse agonists

**Q.** What about the “inhibition of β-arrestin recruitment following CXCR2 activation with IL8” value (CXCR2 [6]; listed as SX-576) of the same molecule?
**A.** inhibited arrestin recruitment; also recorded: more potent inhibitor than SX-517, comparable to the diarylurea SB225002

**Q.** What about the neutrophil influx (neutrophil influx [7]) of the same molecule?
**A.** significantly attenuate neutrophil influx

**Q.** What about the “wash-resistant inhibition of GROα mediated intracellular calcium release” value (CXCR2 [8]) of the same molecule?
**A.** dose-dependent and wash-resistant inhibition
